The values below are quoted from earlier work in publication PMC8513935.

Series [1] in a line: experimental, compiled by the authors from the literature (the ESI cites the sources).
A short description of series [2]: log P octanol/water from commercial databases, averaged (the ESI). Conditions: Octanol (wet), 25 C.
A short description of series [3]: derived by the authors as gas->solvent minus gas->water (a hypothetical dry solvent; the ESI), not a two-phase measurement.

As for `C=CCCC`, the log K of transfer, gas to solvent in series [1] (1,2-Dichloroethane, 25 C) was 2.1 log10 K; in series [1] (Butan-1-ol, 25 C) it was 1.94 log10 K; in series [1] (Butanone, 25 C) it was 2.11 log10 K; in series [1] (Chlorobenzene, 25 C) it was 2.21 log10 K; in series [1] (Cyclohexanone, 25 C), 2.03 log10 K; in series [1] (Hexadecane, 25 C) it was 2.05 log10 K. Further, the log K of transfer, gas to solvent in series [1] (Octan-1-ol, 25 C) is 1.93 log10 K; in series [1] (Water, 25 C), -1.23 log10 K. For the same compound, in series [2], the log K of transfer, water to solvent was 2.8 log10 K.
Consider `CC1CCCCC1`, for which the log K of transfer, gas to solvent was 3.02 log10 K in series [1] (Butanone, 25 C); 2.99 log10 K in series [1] (Butyronitrile, 25 C); 3.05 log10 K in series [1] (Heptan-1-ol, 25 C); 3.32 log10 K in series [1] (Hexadecane, 25 C); 3.05 log10 K in series [1] (Octan-1-ol, 25 C); 2.78 log10 K in series [1] (Propan-2-ol, 25 C). The log K of transfer, gas to solvent in series [1] (Propanone, 25 C) was 2.88 log10 K; in series [1] (Propionitrile, 25 C), 2.85 log10 K; in series [1] (Tetrahydrofuran, 25 C), 3.42 log10 K; in series [1] (Water, 25 C) it was -1.25 log10 K. For the same compound, in series [2], the log K of transfer, water to solvent was 3.88 log10 K.
On to `CCCCCC`, for which the log K of transfer, gas to solvent was 2.51 log10 K in series [1] (1,2-Dichloroethane, 25 C); 2.46 log10 K in series [1] (2-Methylpropan-1-ol, 25 C); 2.44 log10 K in series [1] (2-Methylpropan-2-ol, 25 C); 2.39 log10 K in series [1] (3-Methylbutan-1-ol, 25 C); 1.96 log10 K in series [1] (Acetonitrile, 25 C); 2.65 log10 K in series [1] (Benzene, 25 C). The log K of transfer, gas to solvent in series [1] (Butan-1-ol, 25 C) was 2.44 log10 K; in series [1] (Butanone, 25 C) it was 2.52 log10 K; in series [1] (Butyronitrile, 25 C), 2.34 log10 K; in series [1] (CCl4, 25 C), 2.98 log10 K; in series [1] (Chlorobenzene, 25 C), 2.95 log10 K; in series [1] (Chloroform, 25 C) it was 2.87 log10 K. The log K of transfer, gas to solvent in series [1] (Cyclohexanone, 25 C) is 2.44 log10 K; in series [1] (Di-n-butyl ether, 25 C) it was 2.82 log10 K; in series [1] (Dichloromethane, 25 C) it was 2.75 log10 K; in series [1] (Ethanol, 25 C), 2.24 log10 K; in series [1] (Heptan-1-ol, 25 C), 2.44 log10 K; in series [1] (Hexadecane, 25 C), 2.67 log10 K. Moreover, the log K of transfer, gas to solvent was 2.48 log10 K in series [1] (Hexan-1-ol, 25 C); 2.97 log10 K in series [1] (Hexane, 25 C); 2.05 log10 K in series [1] (Methanol, 25 C); 2.44 log10 K in series [1] (Octan-1-ol, 25 C); 2.44 log10 K in series [1] (Pentan-1-ol, 25 C); 1.88 log10 K in series [1] (Perfluoroalkane, 25 C). Also, the log K of transfer, gas to solvent was 2.28 log10 K in series [1] (Propan-1-ol, 25 C); 2.3 log10 K in series [1] (Propan-2-ol, 25 C); 2.37 log10 K in series [1] (Propanone, 25 C); 2.22 log10 K in series [1] (Propionitrile, 25 C); 2.84 log10 K in series [1] (Tetrahydrofuran, 25 C); 2.82 log10 K in series [1] (Toluene, 25 C). Further, the log K of transfer, gas to solvent in series [1] (Water, 25 C) was -1.82 log10 K. Further, the log K of transfer, water to solvent in series [2] was 3.9 log10 K.
For the compound `Fc1ccccc1`, the log K of transfer, gas to solvent is 2.67 log10 K in series [1] (CCl4, 25 C); 3.44 log10 K in series [1] (Chloroform, 25 C); 2.81 log10 K in series [1] (Cyclohexane, 25 C); 2.79 log10 K in series [1] (Hexadecane, 25 C); 3.04 log10 K in series [1] (Hexane, 25 C); 3.62 log10 K in series [1] (Tetrahydrofuran, 25 C). Further, the log K of transfer, gas to solvent in series [1] (Water, 25 C) is 0.59 log10 K. Also, the log K of transfer, water to solvent in series [3] (CCl4, 25 C) is 2.08 log10 K; in series [3] (Chloroform, 25 C), 2.85 log10 K; in series [3] (Cyclohexane, 25 C) it was 2.22 log10 K; in series [3] (Hexadecane, 25 C) it was 2.2 log10 K; in series [3] (Hexane, 25 C) it was 2.45 log10 K; in series [3] (Tetrahydrofuran, 25 C), 3.03 log10 K.
For `CCCCCCCCCCCCCC`, in series [2], the log K of transfer, water to solvent was 8 log10 K.
Regarding `Cc1ccncc1`, the log K of transfer, gas to solvent in series [1] (CCl4, 25 C) is 4.46 log10 K; in series [1] (Hexadecane, 25 C), 3.64 log10 K; in series [1] (Water, 25 C), 3.62 log10 K. The log K of transfer, water to solvent in series [3] (CCl4, 25 C) is 0.84 log10 K; in series [3] (Hexadecane, 25 C) it was 0.02 log10 K.
As for `CCCCCCc1ccccc1`, the log K of transfer, gas to solvent in series [1] (Hexadecane, 25 C) is 5.72 log10 K; in series [1] (Methanol, 25 C) it was 5.23 log10 K; in series [1] (Water, 25 C), 0.03 log10 K. The log K of transfer, water to solvent in series [3] (Hexadecane, 25 C) is 5.69 log10 K; in series [3] (Methanol, 25 C), 5.2 log10 K.
Regarding `CCCCCCCCCCCCCCCCCCCCO`, the log K of transfer, gas to solvent in series [1] (Decan-1-ol, 25 C) is 12 log10 K; in series [1] (Hexadecane, 25 C), 10.7 log10 K; in series [1] (Hexan-1-ol, 25 C), 12.1 log10 K; in series [1] (Octan-1-ol, 25 C), 12.1 log10 K; in series [1] (Propan-2-ol, 25 C), 11.9 log10 K; in series [1] (Water, 25 C) it was 1.54 log10 K. In addition, the log K of transfer, water to solvent in series [3] (Decan-1-ol, 25 C) was 10.5 log10 K; in series [3] (Hexadecane, 25 C), 9.12 log10 K; in series [3] (Hexan-1-ol, 25 C), 10.5 log10 K; in series [3] (Octan-1-ol(dry), 25 C), 10.5 log10 K; in series [3] (Propan-2-ol, 25 C) it was 10.3 log10 K.
`CCCCNCCCC`: the log K of transfer, gas to solvent was 4.35 log10 K in series [1] (Hexadecane, 25 C) and 2.38 log10 K in series [1] (Water, 25 C). In addition, the log K of transfer, water to solvent in series [3] (Hexadecane, 25 C) is 1.97 log10 K.
Take `CCSCC`: the log K of transfer, gas to solvent is 4.69 log10 K in series [1] (Chloroform, 25 C); 3.02 log10 K in series [1] (Hexadecane, 25 C); 1.07 log10 K in series [1] (Water, 25 C). For the same compound, the log K of transfer, water to solvent in series [3] (Chloroform, 25 C) is 3.62 log10 K.
